Activity calls are given as the source filed them.
Key:
Cytochrome P450 2D6 = Cytochrome P450 2D6 (Homo sapiens, UniProt P10635);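 also: CYP2D6 member of a cytochrome P450 panel assay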
Cytochrome P450 3A4 = Cytochrome P450 3A4 (Homo sapiens, UniProt P08684);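 also: CYP3A4 tested as one member of a cytochrome P450 panel screen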
Cytochrome P450 2C19 = Cytochrome P450 2C19 (Homo sapiens, UniProt P33261); experiment: Cytochrome panel assay with activity outcomes. Panel member name: p450-cyp2c19 Compounds with AC50 equal or less than 10 uM are considered active; type: functional; details: read-out: AC50
Cytochrome P450 1A2 = target: T1, Cytochrome P450 1A2 (Homo sapiens, UniProt P05177);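 also: PubChem cytochrome P450 panel assay, CYP1A2 panel member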
T1 sequence (P05177 whole entry): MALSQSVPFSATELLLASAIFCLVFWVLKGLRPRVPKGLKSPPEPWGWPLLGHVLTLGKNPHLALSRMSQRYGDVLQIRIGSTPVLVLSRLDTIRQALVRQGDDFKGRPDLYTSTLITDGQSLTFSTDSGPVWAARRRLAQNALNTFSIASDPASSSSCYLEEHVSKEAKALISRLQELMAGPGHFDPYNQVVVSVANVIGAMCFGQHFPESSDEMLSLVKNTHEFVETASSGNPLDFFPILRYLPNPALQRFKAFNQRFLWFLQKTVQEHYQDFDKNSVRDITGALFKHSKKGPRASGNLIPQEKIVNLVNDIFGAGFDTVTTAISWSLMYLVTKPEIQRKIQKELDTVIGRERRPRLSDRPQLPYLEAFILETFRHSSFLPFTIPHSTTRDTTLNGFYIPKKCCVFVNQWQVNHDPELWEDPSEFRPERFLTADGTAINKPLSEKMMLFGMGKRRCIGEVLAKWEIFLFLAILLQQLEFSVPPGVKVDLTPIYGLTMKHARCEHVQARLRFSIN

[1] = target: T2, Heat shock factor protein 1 (Mus musculus, UniProt P38532); experiment: enhancement of HSF1-driven luciferase signal – cell-based, NIH3T3, luminescence, dose retest, confirmation (AID 435004); type: functional;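 also: stress induced by proteasome inhibitor MG132 added 30 min after compound; luciferase reporter driven by HSF1 response element in NIH3T3 cells; actives raise luminescence as potentiators of the MG132 stress response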
T2 sequence (P38532 whole entry): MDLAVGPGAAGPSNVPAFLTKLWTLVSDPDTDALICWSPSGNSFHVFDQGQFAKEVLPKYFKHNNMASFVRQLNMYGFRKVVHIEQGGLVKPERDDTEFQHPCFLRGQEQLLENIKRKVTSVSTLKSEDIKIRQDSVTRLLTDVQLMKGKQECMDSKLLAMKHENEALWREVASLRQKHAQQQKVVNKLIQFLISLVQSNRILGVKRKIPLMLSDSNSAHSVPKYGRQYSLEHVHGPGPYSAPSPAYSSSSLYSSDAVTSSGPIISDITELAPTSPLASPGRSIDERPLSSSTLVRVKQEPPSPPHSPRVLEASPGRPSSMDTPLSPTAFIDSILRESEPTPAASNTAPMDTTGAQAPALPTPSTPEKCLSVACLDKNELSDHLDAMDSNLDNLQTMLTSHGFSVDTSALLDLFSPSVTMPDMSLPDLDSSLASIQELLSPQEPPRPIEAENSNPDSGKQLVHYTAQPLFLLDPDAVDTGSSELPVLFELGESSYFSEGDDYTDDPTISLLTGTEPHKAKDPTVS

Cytochrome P450 2C9 = Cytochrome P450 2C9 (Homo sapiens, UniProt P11712)
[2] = P. falciparum Dd2 growth inhibitors, dose response, SYBR Green, cherry-picked samples (AID 1159567); type: functional, cell-based
Protein RecA = target: T3, Protein RecA (Mycobacterium tuberculosis, UniProt P9WHJ3); experiment: Fluorescence Cell-Free Homogeneous Dose Retest to Identify Inhibitors of RecA-Intein Splicing Activity. [Related pubchem assays (depositor defined):AID2097, AID2223, AID489010, AID492950]; type: functional
T3 sequence (P9WHJ3 whole entry): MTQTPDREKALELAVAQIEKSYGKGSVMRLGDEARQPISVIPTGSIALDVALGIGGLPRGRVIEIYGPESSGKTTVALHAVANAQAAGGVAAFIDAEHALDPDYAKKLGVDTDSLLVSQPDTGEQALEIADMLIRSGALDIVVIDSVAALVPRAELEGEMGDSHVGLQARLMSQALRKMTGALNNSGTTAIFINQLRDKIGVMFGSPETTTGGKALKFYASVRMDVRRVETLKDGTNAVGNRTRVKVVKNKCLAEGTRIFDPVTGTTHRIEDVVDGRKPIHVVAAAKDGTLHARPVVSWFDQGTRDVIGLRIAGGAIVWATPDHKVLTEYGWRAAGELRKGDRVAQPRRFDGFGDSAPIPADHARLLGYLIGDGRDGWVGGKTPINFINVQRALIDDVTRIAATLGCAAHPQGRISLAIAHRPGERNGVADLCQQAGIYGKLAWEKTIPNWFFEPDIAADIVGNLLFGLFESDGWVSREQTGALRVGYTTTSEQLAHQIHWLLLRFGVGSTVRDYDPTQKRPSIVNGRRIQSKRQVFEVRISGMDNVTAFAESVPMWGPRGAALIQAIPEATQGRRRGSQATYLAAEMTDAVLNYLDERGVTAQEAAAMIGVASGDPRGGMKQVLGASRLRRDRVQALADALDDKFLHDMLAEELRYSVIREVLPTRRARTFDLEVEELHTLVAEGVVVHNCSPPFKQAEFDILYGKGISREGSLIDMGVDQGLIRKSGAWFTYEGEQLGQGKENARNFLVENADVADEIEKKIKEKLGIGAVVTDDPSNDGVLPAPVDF

Large T antigen = Large T antigen (Simian virus 40, UniProt P03070); type: functional, Betapolyomavirus macacae;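 also: Confirmatory-stage PubChem screen for compounds that inhibit SV40 T antigen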
[3] = target: T4, Replicative DNA helicase DnaB (Mycobacterium tuberculosis, UniProt P9WMR3); experiment: DnaB intein splicing inhibitors, dose response, biochemical, cell-free fluorescence (AID 449749); type: functional
T4 sequence (P9WMR3 whole entry): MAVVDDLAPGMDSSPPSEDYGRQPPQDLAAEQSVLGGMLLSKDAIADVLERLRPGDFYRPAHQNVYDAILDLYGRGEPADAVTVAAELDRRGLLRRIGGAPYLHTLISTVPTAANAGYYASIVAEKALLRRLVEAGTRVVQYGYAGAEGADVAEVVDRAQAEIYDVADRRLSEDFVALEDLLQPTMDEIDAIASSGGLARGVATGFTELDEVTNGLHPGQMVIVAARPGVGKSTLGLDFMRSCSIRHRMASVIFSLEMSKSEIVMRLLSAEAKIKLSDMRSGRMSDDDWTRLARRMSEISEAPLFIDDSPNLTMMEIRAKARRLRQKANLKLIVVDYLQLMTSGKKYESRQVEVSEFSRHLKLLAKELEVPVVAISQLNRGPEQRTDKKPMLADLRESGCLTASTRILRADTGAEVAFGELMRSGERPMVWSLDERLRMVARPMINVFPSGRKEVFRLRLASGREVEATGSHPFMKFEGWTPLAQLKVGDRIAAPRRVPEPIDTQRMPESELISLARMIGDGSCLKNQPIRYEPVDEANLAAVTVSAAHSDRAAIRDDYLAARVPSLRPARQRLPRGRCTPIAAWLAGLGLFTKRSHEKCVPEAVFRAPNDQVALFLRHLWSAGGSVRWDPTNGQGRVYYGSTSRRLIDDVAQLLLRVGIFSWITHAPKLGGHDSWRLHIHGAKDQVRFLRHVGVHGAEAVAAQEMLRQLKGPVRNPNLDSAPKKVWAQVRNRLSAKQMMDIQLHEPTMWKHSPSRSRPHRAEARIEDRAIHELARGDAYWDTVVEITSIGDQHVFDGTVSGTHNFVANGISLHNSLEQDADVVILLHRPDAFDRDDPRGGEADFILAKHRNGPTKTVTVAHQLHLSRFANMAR

Vero = experiment: cells; type: functional; details: Chlorocebus sabaeus
[4] = target: T5, Polyadenylate-binding protein 1 (Homo sapiens, UniProt P11940); experiment: MLLE binding blockers, Cy5 peptide tracer – biochemical, fluorescence polarization, Cy5-PAM2 peptide, secondary, miRNA deadenylation inhibitor project, dose response (AID 602260); type: functional; details: read-out: IC50_Mean
[5] = target: T5, Polyadenylate-binding protein 1; experiment: MLLE domain peptide-binding blockers, IC50 – biochemical, fluorescence polarization, FITC-PAM2 peptide, dose response (AID 602259); type: functional; details: read-out: IC50_Mean

T5 sequence (P11940 whole entry, the tested form may be a part): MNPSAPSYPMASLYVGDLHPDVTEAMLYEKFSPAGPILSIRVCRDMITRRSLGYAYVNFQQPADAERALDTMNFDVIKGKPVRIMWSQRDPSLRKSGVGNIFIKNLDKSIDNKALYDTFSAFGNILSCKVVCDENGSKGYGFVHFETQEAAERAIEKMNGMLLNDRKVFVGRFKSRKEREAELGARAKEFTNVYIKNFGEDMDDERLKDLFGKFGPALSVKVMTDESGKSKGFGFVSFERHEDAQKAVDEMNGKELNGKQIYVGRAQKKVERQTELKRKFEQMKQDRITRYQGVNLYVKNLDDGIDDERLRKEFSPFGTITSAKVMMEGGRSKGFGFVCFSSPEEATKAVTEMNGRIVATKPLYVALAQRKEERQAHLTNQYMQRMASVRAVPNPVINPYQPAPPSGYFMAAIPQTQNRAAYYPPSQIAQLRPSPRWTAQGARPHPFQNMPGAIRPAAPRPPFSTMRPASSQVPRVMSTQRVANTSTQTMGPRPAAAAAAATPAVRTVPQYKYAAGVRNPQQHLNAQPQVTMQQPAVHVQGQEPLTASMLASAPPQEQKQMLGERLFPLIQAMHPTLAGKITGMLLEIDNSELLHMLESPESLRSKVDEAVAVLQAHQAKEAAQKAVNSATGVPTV
Sequence of Cytochrome P450 3A4 (P08684 whole entry): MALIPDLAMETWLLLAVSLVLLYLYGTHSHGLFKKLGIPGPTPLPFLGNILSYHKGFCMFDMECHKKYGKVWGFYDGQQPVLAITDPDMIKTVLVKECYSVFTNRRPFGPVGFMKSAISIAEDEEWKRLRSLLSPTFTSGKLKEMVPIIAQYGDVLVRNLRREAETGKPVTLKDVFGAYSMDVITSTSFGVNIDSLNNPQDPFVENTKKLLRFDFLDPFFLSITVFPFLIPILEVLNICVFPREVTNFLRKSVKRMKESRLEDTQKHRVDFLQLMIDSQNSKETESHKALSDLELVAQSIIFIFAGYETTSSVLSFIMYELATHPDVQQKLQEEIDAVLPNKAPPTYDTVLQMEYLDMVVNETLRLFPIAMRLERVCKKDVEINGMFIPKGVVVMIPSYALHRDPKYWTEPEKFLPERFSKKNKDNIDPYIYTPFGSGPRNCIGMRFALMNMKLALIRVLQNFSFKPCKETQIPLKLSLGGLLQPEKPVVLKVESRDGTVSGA
Sequence of Cytochrome P450 2D6 (P10635 whole entry): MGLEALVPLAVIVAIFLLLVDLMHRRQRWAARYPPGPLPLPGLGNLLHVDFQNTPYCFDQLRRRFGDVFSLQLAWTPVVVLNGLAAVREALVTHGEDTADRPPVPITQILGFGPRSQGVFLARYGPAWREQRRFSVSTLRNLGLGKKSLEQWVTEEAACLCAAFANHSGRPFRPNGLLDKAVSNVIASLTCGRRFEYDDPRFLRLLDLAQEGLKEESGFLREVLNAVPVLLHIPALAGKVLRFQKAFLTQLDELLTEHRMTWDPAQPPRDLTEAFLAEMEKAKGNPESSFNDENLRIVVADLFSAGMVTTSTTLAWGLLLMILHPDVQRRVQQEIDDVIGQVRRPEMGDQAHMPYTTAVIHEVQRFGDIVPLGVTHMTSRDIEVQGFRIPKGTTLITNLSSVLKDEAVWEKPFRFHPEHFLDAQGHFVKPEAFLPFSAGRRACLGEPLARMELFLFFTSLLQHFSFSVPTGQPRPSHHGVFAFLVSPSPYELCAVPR
Sequence of Cytochrome P450 2C19 (P33261 whole entry): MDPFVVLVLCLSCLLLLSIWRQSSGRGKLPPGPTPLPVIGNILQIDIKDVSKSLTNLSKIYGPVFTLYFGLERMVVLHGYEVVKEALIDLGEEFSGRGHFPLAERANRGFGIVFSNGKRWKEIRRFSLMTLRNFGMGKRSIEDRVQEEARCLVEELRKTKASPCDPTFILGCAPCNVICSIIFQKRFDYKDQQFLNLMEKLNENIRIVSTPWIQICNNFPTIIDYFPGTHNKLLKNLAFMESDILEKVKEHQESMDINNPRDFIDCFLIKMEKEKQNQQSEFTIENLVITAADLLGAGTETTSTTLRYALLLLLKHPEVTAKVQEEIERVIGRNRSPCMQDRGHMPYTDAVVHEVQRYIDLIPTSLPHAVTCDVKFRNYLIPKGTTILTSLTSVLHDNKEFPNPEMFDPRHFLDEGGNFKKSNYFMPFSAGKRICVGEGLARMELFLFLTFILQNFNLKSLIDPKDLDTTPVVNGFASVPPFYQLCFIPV
Sequence of Cytochrome P450 2C9 (P11712 whole entry): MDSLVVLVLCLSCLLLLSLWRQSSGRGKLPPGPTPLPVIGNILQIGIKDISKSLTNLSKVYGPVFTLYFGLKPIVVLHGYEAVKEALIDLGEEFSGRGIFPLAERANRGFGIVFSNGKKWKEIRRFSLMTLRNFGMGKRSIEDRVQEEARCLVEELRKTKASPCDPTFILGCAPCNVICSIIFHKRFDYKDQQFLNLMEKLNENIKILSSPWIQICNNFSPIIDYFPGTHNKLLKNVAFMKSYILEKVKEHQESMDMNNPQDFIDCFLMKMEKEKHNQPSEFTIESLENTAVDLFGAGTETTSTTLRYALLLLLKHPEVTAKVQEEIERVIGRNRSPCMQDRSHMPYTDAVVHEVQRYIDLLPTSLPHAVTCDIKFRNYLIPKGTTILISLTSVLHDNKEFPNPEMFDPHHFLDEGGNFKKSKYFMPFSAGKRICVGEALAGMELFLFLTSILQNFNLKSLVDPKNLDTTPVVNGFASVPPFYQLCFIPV
Sequence of Large T antigen (P03070 whole entry): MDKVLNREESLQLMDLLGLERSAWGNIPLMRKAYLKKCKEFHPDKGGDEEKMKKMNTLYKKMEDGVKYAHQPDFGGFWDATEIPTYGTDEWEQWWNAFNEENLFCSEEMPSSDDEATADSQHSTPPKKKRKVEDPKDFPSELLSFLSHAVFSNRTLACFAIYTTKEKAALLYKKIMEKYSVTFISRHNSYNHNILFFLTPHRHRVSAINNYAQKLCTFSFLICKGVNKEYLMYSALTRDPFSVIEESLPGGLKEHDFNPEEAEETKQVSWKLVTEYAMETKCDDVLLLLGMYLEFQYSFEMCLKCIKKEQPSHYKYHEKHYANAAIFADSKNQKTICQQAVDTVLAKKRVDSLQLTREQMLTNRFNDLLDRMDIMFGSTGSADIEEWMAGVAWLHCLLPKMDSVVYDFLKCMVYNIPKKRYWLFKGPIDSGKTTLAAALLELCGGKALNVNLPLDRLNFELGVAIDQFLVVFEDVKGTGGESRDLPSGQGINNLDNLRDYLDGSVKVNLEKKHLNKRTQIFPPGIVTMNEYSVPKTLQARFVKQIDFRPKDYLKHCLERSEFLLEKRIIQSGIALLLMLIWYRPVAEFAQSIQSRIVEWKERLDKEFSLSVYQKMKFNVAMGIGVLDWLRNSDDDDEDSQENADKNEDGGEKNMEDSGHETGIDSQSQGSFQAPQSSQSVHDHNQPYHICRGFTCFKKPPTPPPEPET

CO/N=C1/c2cc(OC)ccc2O[C@@H](c2cccc(OC)c2)[C@H]1O
AC50 (Cytochrome P450 2D6): 3.16 µM (inconclusive)
AC50 (Cytochrome P450 3A4): 6.31 µM (inconclusive)
AC50 (Cytochrome P450 2C19): 3.98 µM (inconclusive)

CCOC(=O)/C(C#N)=C1/SC(CC)C(=O)N1c1ccc(Br)cc1 (stereo unspecified)
AC50 (Cytochrome P450 2D6): 11.2 µM (inconclusive)
AC50 (Cytochrome P450 3A4): 28.2 µM (inconclusive)
AC50 (Cytochrome P450 1A2): 31.6 µM (inconclusive)

CC1=Nc2cc(C(=O)O)ccc2Sc2c(C)ccc(C)c21
EC50 [1]: > 260 µM (inactive)

COc1ccc(CNCCc2ccccc2)cc1OCC(N)=O
AC50 (Cytochrome P450 3A4): 17.8 µM (inconclusive)
AC50 (Cytochrome P450 2C9): 0.0282 µM (inconclusive)
AC50 (Cytochrome P450 2C19): 6.31 µM (inconclusive)

COc1ccc(-c2nnn(Cc3nc(N)nc(N4CCOCC4)n3)n2)cc1OC
AC50 (Cytochrome P450 2D6): 12.6 µM (inconclusive)
AC50 (Cytochrome P450 3A4): 28.2 µM (inconclusive)
AC50 (Cytochrome P450 2C9): 25.1 µM (inconclusive)
AC50 (Cytochrome P450 2C19): 35.5 µM (inconclusive)

Cc1ccnc(N2CCCC(C(=O)Nc3ccc(C)c(C)c3)C2)n1 (stereo unspecified)
EC50 [1]: > 260 µM (inactive)

C[C@@H]1CN([C@@H](C)CO)C(=O)c2cc(C#Cc3ccccc3)cnc2O[C@H]1CN(C)C(=O)CCN1CCCCC1
AC50 [2]: 3.03 µM (active)

Cc1ccc(CN2CCN(/N=C/c3ccc(C)s3)CC2)c(C)c1
EC50 [1]: > 260 µM (inactive)

Cc1ccc(S(=O)(=O)Cc2cc(F)c([N+](=O)[O-])cc2[N+](=O)[O-])cc1
EC50 (Protein RecA): 17.2 µM (active)
IC50 (Large T antigen): 4.86 µM (active)
AC50 [3]: 16.6 µM (active)

COc1ccc2c3c(n(C)c2c1)[C@@H](CO)N(C(=O)Nc1ccc(F)cc1)CC31CN(C(=O)c2ccc3c(c2)OCO3)C1
AC50 [2]: 5.67 µM (active)

Cc1ccccc1NC(=O)OCc1cn(-c2ccc(Cl)cc2)nn1
AC50 (Cytochrome P450 2D6): 0.708 µM (inconclusive)
AC50 (Cytochrome P450 3A4): 0.794 µM (inconclusive)
AC50 (Cytochrome P450 2C19): 8.91 µM (inconclusive)

NNC(=O)C1C(O)CCC2CN3CCc4c([nH]c5ccccc45)C3CC21 (stereo unspecified)
CC50 (Vero): > 25 µM (active)

COc1ccc(OC)c(/C=C/C(=O)c2ccc3c(c2)OCCO3)c1
CC50 (Vero): 18.8 µM (active)

CCCNC(=O)Nc1ccc2c(c1)OC[C@@H](C)N(CC1CCCC1)C[C@@H](C)[C@H](OC)CN(C)C2=O
AC50 [2]: 6.1 µM (active)

N=c1n(-c2ccccc2)c(O)cc(=O)n1-c1ccccc1
AC50 (Cytochrome P450 2D6): 22.4 µM (inconclusive)
AC50 (Cytochrome P450 3A4): 25.1 µM (inconclusive)

COc1ccc(Nc2ccc([N+](=O)[O-])cn2)cn1
IC50 [4]: > 66 µM (inactive)
IC50 [5]: 59.6 µM (inactive)

COC(=O)c1c(NC(=O)c2ccc(C)o2)sc2c1CCCCC2
IC50 [4]: > 66 µM (inactive)
IC50 [5]: > 66 µM (inactive)

CC1C(=O)N(Cc2cn(Cc3ccco3)nn2)CCS(=O)(=O)N1Cc1ccc(-c2ccccc2)cc1 (stereo unspecified)
CC50 (Vero): > 25 µM (active)

COc1ccc(C(=O)NC(=S)Nc2nc(C)c(C(=O)N(C)C)s2)cc1
IC50 [4]: > 66 µM (inactive)
IC50 [5]: > 66 µM (inactive)

O=C(CSc1nccc(=O)[nH]1)N1CCCc2ccccc21
IC50 [4]: > 66 µM (inactive)
IC50 [5]: > 66 µM (inactive)

O=C(C1CCCC1)N1CC[C@@H]2[C@H](CO)Nc3ccc(Br)cc3[C@@H]21
AC50 [2]: 12.7 µM (active)

CCCN1C2=NCCCN2c2ccccc21
AC50 (Cytochrome P450 3A4): 35.5 µM (inconclusive)
AC50 (Cytochrome P450 2C19): 20 µM (inconclusive)

O=C(NCc1ccc(N2CCCC2=O)cc1)Nc1ccccc1
EC50 [1]: > 260 µM (inactive)

CCc1ccccc1NC1=NCC(=O)N1C1CCCCC1
EC50 [1]: > 260 µM (inactive)

Cc1cc(S(=O)(=O)NCCCN2CCOCC2)ccc1F
AC50 (Cytochrome P450 3A4): 28.2 µM (inconclusive)
AC50 (Cytochrome P450 2C19): 28.2 µM (inconclusive)

COc1ccc(S(=O)(=O)N2CCC(C(=O)NCc3cccnc3)CC2)cc1C
EC50 [1]: > 260 µM (inactive)

CCCC(=O)N1CCC2(CC1)CN(Cc1ccncc1)[C@@H](CO)c1[nH]c3cc(OC)ccc3c12
AC50 [2]: 7.29 µM (active)

O=C(CSc1ncn(-c2ccccc2)n1)Nc1ccc2c(c1)OCCO2
IC50 [4]: > 66 µM (inactive)
IC50 [5]: > 66 µM (inactive)

Fc1cc(NCc2ccccc2)nc(NCc2ccccc2)n1
EC50 [1]: 91.1 µM (active)

CCC(C)c1ccccc1NC(=O)c1cc(C)no1 (stereo unspecified)
EC50 [1]: > 260 µM (inactive)
